According to ChEMBL document CHEMBL5727751, “Use of aza-tryptanthrin derivatives as inhibitors of IDO1 and/or TDO” (2020):

These compounds were tested against Indoleamine 2,3-dioxygenase 1 (Homo sapiens, UniProt P14902) (assay: Indoleamine-2,3-Dioxygenase 1 Inhibitory Activity: Experimental method: IDO-1 can oxidatively cleave the indole ring of tryptophan to form N-formylkynurenine. Referring to the method in the literature (Eddy W. Yue, et al. J. Med. Chem. 2009, 52, 7364-7367), 20 nM IDO-1, 2 mM D-tryptophan, 20 mM ascorbic acid, […] methyl blue and 0.2 mg/mL antioxidant enzyme were sequentially added to 50 mM potassium phosphate buffer at room temperature. Due to the formation of N-formylkynurenine, the reaction rate was recorded by the increasing absorbance of the solution at 321 nm. IC50 values were calculated using Prism GraphPad software.).
Indoleamine 2,3-dioxygenase 1, sequence (P14902 whole entry): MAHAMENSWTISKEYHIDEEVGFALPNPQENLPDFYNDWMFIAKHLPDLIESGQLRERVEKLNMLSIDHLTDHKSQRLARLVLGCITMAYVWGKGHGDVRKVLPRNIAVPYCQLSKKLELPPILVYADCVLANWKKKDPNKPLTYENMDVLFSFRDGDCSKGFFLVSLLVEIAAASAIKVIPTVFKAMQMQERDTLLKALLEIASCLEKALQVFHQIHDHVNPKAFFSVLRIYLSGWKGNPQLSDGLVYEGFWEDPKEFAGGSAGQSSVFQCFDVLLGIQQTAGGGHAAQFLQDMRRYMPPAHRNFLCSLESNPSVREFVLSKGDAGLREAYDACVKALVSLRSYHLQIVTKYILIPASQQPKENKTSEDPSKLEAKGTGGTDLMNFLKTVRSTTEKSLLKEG
O=C1c2cc([N+](=O)[O-])ccc2-n2c1nc1ncccc1c2=O gave an IC50 of 0.001 to 0.1 µM.
Compound O=C1c2cnccc2-n2c1nc1ncccc1c2=O has an IC50 of 0.001 to 0.1 µM.
O=C1c2cc(Cl)ccc2-n2c1nc1ncccc1c2=O showed an IC50 of 0.001 to 0.1 µM.
CN(C)CCON=C1c2cc([N+](=O)[O-])ccc2-n2c1nc1ncccc1c2=O gave an IC50 of 0.001 to 0.1 µM.
With CN(C)C(=S)NN=C1c2cc([N+](=O)[O-])ccc2-n2c1nc1ncccc1c2=O the IC50 was 0.001 to 0.1 µM.
In the case of NC(=S)NN=C1c2cc([N+](=O)[O-])ccc2-n2c1nc1ncccc1c2=O, the IC50 is reported as 0.001 to 0.1 µM.
Compound O=C1c2cc(F)ccc2-n2c1nc1ncccc1c2=O has an IC50 of 0.001 to 0.1 µM.
Compound N=C(N)NN=C1c2cc([N+](=O)[O-])ccc2-n2c1nc1ncccc1c2=O has an IC50 of 0.001 to 0.1 µM.
For O=C1c2cc(OC(F)(F)F)ccc2-n2c1nc1ncccc1c2=O, the IC50 was 0.001 to 0.1 µM.
